Here are results for three compounds from publication PMC7708037, “Targeting OGG1 arrests cancer cell proliferation by inducing replication stress” (Nucleic Acids Research, 2020).

In one experiment the test system is Hec59. Description: Resazurin viability, 5 days. The experiment is classed as cell-based, human. Conditions: Hec59, C, Endometrioid adenocarcinoma. The protocol:
(§1) Cells were seeded in 96- or 384-well plates and incubated for 3 days for combination experiments or 5 days for single-drug exposure experiments. Resazurin (R7017, SigmaAldrich) was added to a final concentration of 0.01 mg/ml resazurin and fluorescence was measured at ex530/em590 after incubation for 2, 4 or 6 h. Curves were fitted using XLfit software (IDBS) or Prism 8.0 (Graphpad Software), and EC50 values were determined.
(§2) Supplementary Table S1: Effect of OGG1 inhibitors on cancer and non-transformed cell lines.
(§3) Cell lines were incubated with a dilution series of the indicated compounds for 5 days, and viability
(§4) assessed with resazurin. EC50-values were calculated based on the resulting dose -response curves.
(§5) The number of independent experiments is indicated for each value.
(§6) C=cancer;N=non- Disease EC50 n= EC50 n= EC50 n=

The test system of the next experiment is K562. The experiment in a line: Resazurin viability, 5 days. The experiment is classed as cell-based, human. Particulars: K562, C, Chronic myelogenous leukemia. The method, then: as §1, §2, §3, §4, §5, §6
The subject of another experiment is MCF7. Description: Resazurin viability, 5 days. Conditions: MCF7, C, Breast adenocarcinoma. The experiment is classed as cell-based, human. The protocol:
as §1, §2, §3, §4, §5, §6
A general note: Alamar Blue is a resazurin reagent that responds to reducing activity.

Another experiment deals with SW1271. The experiment in a line: Resazurin viability, 5 days. The experiment is classed as cell-based, human. Particulars: SW1271, C, Small cell lung carcinoma. The protocol: as §1, §2, §3, §4, §5, §6
Another experiment deals with A3. Description: Resazurin viability, 5 days. The experiment is classed as cell-based, human. Particulars: A3, C, T-cell acute lymphoblastic leukemia. The method, then:
as §1, §2, §3, §4, §5, §6
transformed (µM) (µM) (µM)

A further experiment deals with Hec59+Chr2. Description: Resazurin viability, 5 days. The experiment is classed as cell-based, human. Conditions: Hec59+Chr2, C, Endometrioid adenocarcinoma with WT Chr2. The protocol:
as §1, §2, §3, §4, §5, §6
(§7) transformed (µM) (µM) (µM) […]

For another experiment, the system named is NB-4. The experiment in a line: Resazurin viability, 5 days. Format: cell-based, human. Conditions: NB-4, C, Acute promyelocytic leukemia. The protocol: as §1, §2, §3, §4, §5, §6, §7
A further experiment relates to MEF Ogg1(-/-). Description: Resazurin viability, 5 days. The experiment is classed as cell-based. Conditions: N, Non-transformed mouse embryonic fibroblast. The protocol:
as §1, §2, §3, §4, §5, §6, §7

The subject of the next experiment is THP1. The experiment in a line: Resazurin viability, 5 days. The experiment is classed as cell-based, human. Conditions: THP1, C, Acute monocytic leukemia. The method, then:
as §1, §2, §3, §4, §5, §6, §7
THP1 C Acute monocytic leukemia 17.8 4 19.2 2

Another experiment concerns the target OGG1 enzyme (Homo sapiens, UniProt O15527). Description: OGG1 activity in vitro (biochemical assay). Conditions: for IC50: 1 nM OGG1, 10 nM 8oxoA:C substrate, 2 nM APE1, read-out: IC50 of OGG1 inhibition. The method, then: OGG1 activity was assessed in vitro as previously described ([39]).
Figure 7. […] (A) Lack of TH5487 efficacy in vivo. A3 cells were injected subcutaneously in mice, allowed to graft for three days and then administered […] TH5487 orally, once a day on weekdays. Twelve days into the treatment, the dose was increased to 40 mg/kg. Data are average ± SD (n = 9 per treatment group). (B) TH5487 target engagement in A3 xenograft. Tumors were excised following termination, and TH5487 target engagement was analyzed by cellular thermal shift assay, using an antibody specific for the human OGG1 protein. Data are average ± SD (n = 4 different tumors per group). (C) Effect of bovine serum albumin on OGG1 inhibition by TH5487. A dilution series of TH5487 was incubated with OGG1 enzyme and a DNA reporter oligonucleotide containing an OGG1-substrate, in the presence or absence of 1% (w/v) bovine serum albumin. Data are average ± SD of four technical replicates from two independent experiments.
Supplementary Fig. S4: OGG1 inhibitors selectively inhibt cancer cell line proliferation A. TH5796 and TH6943 inhibit OGG1 activity in vitro. OGG1 enzyme was treated with the indicated concentration inhibitor in technical duplicates. The line connects the average values. TH5796 inhibits OGG1 with an […]
with the indicated concentrations of TH5796 or TH6943 and 10 nM 8oxoA:C substrate in the presence of 2 nM APE1 as described. B. Chemical structure of TH5487 and the analogues described in this work.
C. Correlation between TH5487 EC 50 values and TH5796 or TH6943. Cell lines were treated for five […]
experiments. The lines indicate the best fit linear regression line, and R 2 the corresponding coefficient of determination. D. to F. Cancer cell selectivity for TH5487 (D), TH5796 (E) and TH6943 (F). Cell lines were treated as in Fig. 3E, and each point represents the EC50 value determined from 1 –5 independent […]
(1 picture or pasted object on this page, not shown here)

OGG1 enzyme, sequence (O15527 whole entry): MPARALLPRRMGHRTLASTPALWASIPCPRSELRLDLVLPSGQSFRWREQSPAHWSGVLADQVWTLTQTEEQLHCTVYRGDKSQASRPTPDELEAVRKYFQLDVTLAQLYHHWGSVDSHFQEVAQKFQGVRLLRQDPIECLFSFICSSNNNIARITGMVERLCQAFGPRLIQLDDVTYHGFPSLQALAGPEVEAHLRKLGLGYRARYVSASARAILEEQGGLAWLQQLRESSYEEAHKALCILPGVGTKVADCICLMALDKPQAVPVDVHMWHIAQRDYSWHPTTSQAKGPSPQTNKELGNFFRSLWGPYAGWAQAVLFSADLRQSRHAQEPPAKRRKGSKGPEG

The EC50 is the midpoint of the concentration-response curve. For `O=C(Nc1ccc(I)cc1)N1CCC(n2c(=O)[nH]c3c(Br)cccc32)CC1` [TH5487], the EC50 with Hec59 was 17 µM; in the experiment on K562, 16.7 µM; with MCF7, 23.3 µM; with SW1271 it was 22 µM; in the experiment with A3, 10 µM; in the experiment on Hec59+Chr2, 15.7 µM. In addition, the figures for the EC50 in the experiment with NB-4, in the experiment with MEF Ogg1(-/-) and with THP1 were 4.8 µM, 47.7 µM and 17.8 µM, respectively. Moreover, the “Effect of bovine serum albumin on OGG1 inhibition” value on OGG1 enzyme (presence of 1% (w/v) bovine serum albumin) is reported as “marked loss of inhibition of OGG1 enzyme activity”.

A word on the IC50: it is the concentration that gives 50% inhibition. Consider `O=C(Nc1ccc(Cl)c(Cl)c1)N1CCC(n2c(=O)[nH]c3c(-c4ccc(CO)nc4)cccc32)CC1` [TH5796, N-(3,4-Dichlorophenyl)-4-[4-[6-(hydroxymethyl)-3-pyridyl]-2-oxo-3H-benzimidazol-1-yl]piperidine-1-carbox amide], for which the EC50 came to 11.5 µM with Hec59 (Homo sapiens, 120 h); 21 µM in the experiment with K562 (Homo sapiens, 120 h); 26.5 µM in the experiment on MCF7 (Homo sapiens, 120 h); 24.6 µM in the experiment with SW1271 (Homo sapiens, 120 h); 7.9 µM with A3 (Homo sapiens, 120 h); 17.3 µM in the experiment with Hec59+Chr2 (Homo sapiens, 120 h). Moreover, the EC50 stood at 11.5 µM in the experiment with NB-4 (Homo sapiens, 120 h); 45.8 µM in the experiment on MEF Ogg1(-/-) (120 h); 19.2 µM in the experiment on THP1 (Homo sapiens, THP-1, 120 h). Besides, at OGG1 enzyme, the IC50 is 766 nM.

With `Cc1cc(NC(=O)N2CCC(n3c(=O)[nH]c4c(Br)cccc43)CC2)ccc1I` [TH6943, 4-(4-Bromo-2-oxo-3H-benzimidazol-1-yl)-N-(4-iodo-3-methyl-phenyl)piperidine-1-carboxamide], the EC50 with A3 (Homo sapiens, 120 h) was found to be 9.8 µM; in the experiment on MEF Ogg1(-/-) (120 h), 34.3 µM. Also, the IC50 at OGG1 enzyme turned out to be 170 nM.
